Among the test systems are SK-MEL-28; A498; SK-OV-3; SF-539; HL-60; SK-MEL-2; MOLT-4; NCI-H226; SN12C; TK-10; OVCAR-8; U-251; IGROV-1; SNB-19; HCT-15; Malme-3M; NCI-H23; SW-620; OVCAR-5; SR.
What all share (assay): DTP human tumour cell line panel, 48 h

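The compound was tested at five concentrations on cells cultured in 96-well plates, with a 48-hour exposure period. The concentration for 50% growth inhibition is given as GI50.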 Activity calls are given as the source filed them. No stated cut-off is given here; in the data, active = GI50 up to about 1.1 µM and inactive = higher.

The term GI50 denotes the concentration that inhibits growth by half. For `CC1=NC(C(=O)O)Cc2c1[nH]c1ccccc21` (configuration not stated), the GI50 in the experiment on SK-MEL-28, in the experiment on A498, with SK-OV-3, in the experiment with SF-539, with HL-60 and with SK-MEL-2 was > 100 µM (inactive) each time. Besides, the GI50 in the experiment with MOLT-4, in the experiment on NCI-H226, in the experiment with SN12C, in the experiment on TK-10, with OVCAR-8 and with U-251 was > 100 µM (inactive) each time. Further, the GI50 with IGROV-1 is > 100 µM (inactive); with SNB-19 it was > 100 µM (inactive); with HCT-15, over 100 µM; with Malme-3M, > 100 µM (inactive); with NCI-H23, > 100 µM (inactive); in the experiment on SW-620, > 100 µM (inactive).
In the case of `Cn1c2c(c3ccccc31)CCN(CCCCN1CCCCC1)C2=O`, the GI50 with SK-MEL-28 is 16.8 µM (inactive); with A498, > 100 µM (inactive); in the experiment with SK-OV-3, > 100 µM (inactive); in the experiment on SF-539, > 100 µM (inactive); with HL-60, > 100 µM (inactive); in the experiment with SK-MEL-2, > 100 µM (inactive). For the same compound, the GI50 in the experiment on MOLT-4, in the experiment on SN12C, with TK-10, in the experiment on OVCAR-8, with U-251 and with IGROV-1 was > 100 µM (inactive) in each case. Besides, the GI50 in the experiment on SNB-19 is > 100 µM (inactive); with HCT-15, over 100 µM; in the experiment with NCI-H23, > 100 µM (inactive); with OVCAR-5, > 100 µM (inactive); in the experiment on SW-620 it was > 100 µM (inactive).
Take `CC1(C)C2CCC3(OCCO3)C1C(O)C2` (configuration not stated): the GI50 with SK-MEL-28, with A498, in the experiment with SF-539, with HL-60, in the experiment with SK-MEL-2 and with MOLT-4 was > 100 µM (inactive) throughout. Besides, the GI50 with NCI-H226, in the experiment on TK-10, in the experiment on OVCAR-8, with U-251, in the experiment with IGROV-1 and in the experiment on SNB-19 was > 100 µM (inactive) in each case. Moreover, the GI50 is over 100 µM in the experiment on HCT-15; > 100 µM (inactive) with Malme-3M; > 100 µM (inactive) in the experiment on NCI-H23; > 100 µM (inactive) in the experiment on OVCAR-5; > 100 µM (inactive) in the experiment with SW-620.
In the case of `COc1cc2c(cc1OC)C(Cl)C(c1cc(OC)c(OC)c(OC)c1)=C2Cl` (configuration not stated), the GI50 with SK-MEL-28 was 16.4 µM (inactive); with A498, 22.3 µM (inactive); in the experiment with SK-OV-3, 28.4 µM (inactive); in the experiment with SF-539, 13.8 µM (inactive); in the experiment on HL-60, 13.6 µM (inactive); with SK-MEL-2 it was 15.5 µM (inactive). Besides, the GI50 in the experiment on MOLT-4 was 7.06 µM (inactive); in the experiment with NCI-H226, 18.7 µM (inactive); in the experiment on SN12C, 13.9 µM (inactive); in the experiment with TK-10 it was 20.3 µM (inactive); in the experiment on OVCAR-8, 17.5 µM (inactive); with U-251 it was 16.4 µM (inactive). The GI50 in the experiment with IGROV-1 is 24 µM (inactive); in the experiment on SNB-19, 14.3 µM (inactive); in the experiment on HCT-15 it was 14.6 µM; in the experiment with Malme-3M, 14.1 µM (inactive); in the experiment on NCI-H23 it was 19.3 µM (inactive); in the experiment on SW-620, 18.8 µM (inactive).
On to `CN(C)CCSc1nccc(-c2ccc(-c3ccnc(SCCN(C)C)n3)s2)n1`, for which the GI50 was 19.1 µM (inactive) with SK-MEL-28; 15.1 µM (inactive) in the experiment on A498; 19.1 µM (inactive) with SK-OV-3; 6.87 µM (inactive) in the experiment on SF-539; 2.37 µM (inactive) in the experiment on HL-60; 13.6 µM (inactive) in the experiment with SK-MEL-2. For the same compound, the GI50 with MOLT-4 is 0.76 µM (active); in the experiment with NCI-H226 it was 12.9 µM (inactive); with SN12C, 6.75 µM (inactive); with OVCAR-8, 6.1 µM (inactive); in the experiment with U-251, 12.9 µM (inactive); in the experiment on IGROV-1, 12.6 µM (inactive). Further, the GI50 in the experiment on SNB-19 is 11.1 µM (inactive); in the experiment on HCT-15, 4.65 µM; with Malme-3M, 11.9 µM (inactive); with NCI-H23, 11.2 µM (inactive); with OVCAR-5, 9.1 µM (inactive); in the experiment with SW-620 it was 3.18 µM (inactive).
For `C1CCC2(CC1)O[C@@H]1[C@@H](O2)[C@@H](O[C@H]2O[C@@H]3COC4(CCCCC4)O[C@H]3[C@@H]3OC4(CCCCC4)O[C@@H]23)O[C@@H]2COC3(CCCCC3)O[C@@H]12`, the GI50 in the experiment on SK-MEL-28 was > 100 µM (inactive); in the experiment on A498, > 100 µM (inactive); in the experiment with SK-OV-3 it was > 100 µM (inactive); in the experiment on SF-539 it was > 100 µM (inactive); in the experiment on HL-60, 11.4 µM (inactive); with SK-MEL-2 it was > 100 µM (inactive). For the same compound, the GI50 is 23.9 µM (inactive) in the experiment with MOLT-4; > 100 µM (inactive) in the experiment with SN12C; > 100 µM (inactive) with TK-10; > 100 µM (inactive) in the experiment with OVCAR-8; > 100 µM (inactive) in the experiment with U-251; > 100 µM (inactive) with IGROV-1. The GI50 with SNB-19, with Malme-3M, with NCI-H23, in the experiment on OVCAR-5 and with SW-620 was > 100 µM (inactive) each time.
Take `Cc1cc2c(C(C)C)c(O)c(O)c(/C=N/c3ccccc3)c2c(O)c1-c1c(C)cc2c(C(C)C)c(O)c(O)c(/C=N/c3ccccc3)c2c1O`: the GI50 in the experiment on SK-MEL-28, with SK-OV-3, with SF-539, in the experiment with HL-60, in the experiment with SK-MEL-2 and with MOLT-4 was > 100 µM (inactive) each time. The GI50 with NCI-H226, in the experiment on SR, with SN12C, with TK-10, in the experiment with OVCAR-8 and with IGROV-1 was > 100 µM (inactive) in each case. Also, the GI50 was > 100 µM (inactive) in the experiment on SNB-19; over 100 µM with HCT-15; > 100 µM (inactive) with Malme-3M; > 100 µM (inactive) in the experiment on OVCAR-5; > 100 µM (inactive) in the experiment with SW-620.
Take `COc1ccc2c(C)cc(N/N=C/c3sccc3C)nc2c1`: the GI50 was 14.8 µM (inactive) in the experiment on SK-MEL-28; 17.1 µM (inactive) with SK-OV-3; 14.3 µM (inactive) with SF-539; 46.8 µM (inactive) in the experiment on HL-60; 15.6 µM (inactive) in the experiment on SK-MEL-2; 13.5 µM (inactive) in the experiment on MOLT-4. Further, the GI50 in the experiment on NCI-H226 is 10 µM (inactive); in the experiment with SR, 22.9 µM (inactive); with SN12C, 7.11 µM (inactive); in the experiment with TK-10, 17.1 µM (inactive); with OVCAR-8, 13.4 µM (inactive); in the experiment on U-251, 17.9 µM (inactive). The GI50 in the experiment with IGROV-1 is 5.82 µM (inactive); in the experiment with SNB-19, 21.7 µM (inactive); with HCT-15 it was 6.03 µM; in the experiment on Malme-3M it was 6.95 µM (inactive); in the experiment with NCI-H23 it was 14.7 µM (inactive); in the experiment on OVCAR-5, 13.5 µM (inactive). Further, in the experiment on SW-620, the GI50 was 21.6 µM (inactive).
With `CCOC(=O)NC(=O)c1cn(CCSCCOC(=O)NCCCCCCNC(=O)OCCSCCn2cc(C(=O)NC(=O)OCC)c(=O)[nH]c2=O)c(=O)[nH]c1=O`, the GI50 in the experiment with SK-MEL-28, in the experiment on SK-OV-3, in the experiment with SF-539, in the experiment with HL-60, in the experiment with SN12C and with TK-10 was > 100 µM (inactive) in each case. The GI50 with OVCAR-8 was > 100 µM (inactive); with U-251, > 100 µM (inactive); in the experiment with IGROV-1, > 100 µM (inactive); in the experiment with SNB-19 it was > 100 µM (inactive); with HCT-15, over 100 µM; in the experiment with Malme-3M, > 100 µM (inactive). For the same compound, the GI50 in the experiment on NCI-H23 and with SW-620 was > 100 µM (inactive) throughout.
Consider `CCOC1=C2N=C(Cc3ccc(F)cc3)NC2C(=O)c2ccccc21` (configuration not stated), for which the GI50 with SK-MEL-28 is 27.5 µM (inactive); in the experiment with A498 it was 21.6 µM (inactive); in the experiment on SK-OV-3 it was 38.2 µM (inactive); in the experiment on SF-539, 13.3 µM (inactive); with HL-60 it was 4.68 µM (inactive); in the experiment on SK-MEL-2 it was 17.6 µM (inactive). The GI50 in the experiment on MOLT-4 is 17.5 µM (inactive); in the experiment with TK-10, 32.6 µM (inactive); in the experiment on OVCAR-8 it was 20.6 µM (inactive); in the experiment on U-251, 33 µM (inactive); in the experiment with IGROV-1, 66.7 µM (inactive); in the experiment on Malme-3M, 11.5 µM (inactive). The results for the GI50 in the experiment with NCI-H23 and in the experiment on OVCAR-5 were 18.3 µM (inactive) and 45.4 µM (inactive), respectively.
For the compound `NC1(C(=O)O)CCc2ccc(N(CCCl)CCCl)cc2C1` (configuration not stated), the GI50 is > 100 µM (inactive) in the experiment with SK-MEL-28; > 100 µM (inactive) in the experiment on A498; > 100 µM (inactive) in the experiment with SK-OV-3; 34.5 µM (inactive) in the experiment with SF-539; 9.82 µM (inactive) in the experiment on HL-60; 38.7 µM (inactive) with SK-MEL-2. Also, the GI50 with MOLT-4 is 4.74 µM (inactive); in the experiment with NCI-H226, > 100 µM (inactive); in the experiment on SN12C, 49.3 µM (inactive); in the experiment with OVCAR-8, > 100 µM (inactive); in the experiment with U-251, 23.8 µM (inactive); with IGROV-1, > 100 µM (inactive). For the same compound, the GI50 is > 100 µM (inactive) in the experiment with SNB-19; over 100 µM in the experiment on HCT-15; 1 µM (active) in the experiment with Malme-3M; > 100 µM (inactive) in the experiment with NCI-H23; 39.9 µM (inactive) in the experiment on OVCAR-5; > 100 µM (inactive) in the experiment on SW-620.
